The values that follow are results of earlier work, collected in patent US6576415B2, “Photothermographic materials with increa sed photosensitivity” (priority 2000, dated 2003).

Each structure is given as a SMILES string. Where two headings read alike, the source gives them in different places.

Turning to `O=P(=O)[O-].[Ag+]` [silver metaphosphate], the Solubility in water (at 20° C.) is on record as 3.2 g/L.
For `[Ag+].[Ag+].[O]=[W](=[O])([O-])[O-]` [silver tungstate], where the note is “at 15° C.”, the Solubility in water is on record as 0.5 g/L.
